Source: patent US10131652B2, “Pyrimidinyloxy benzene derivatives as herbicides” (E. I. DU PONT DE NEMOURS AND COMPANY, priority 2014, dated 2018)

What was measured:
Assay type in all cases: in vivo
[1] = tested on: barnyardgrass (Echinochloa crus-galli); test: Test C flooded paddy test plant response; details: Flood, 250 g ai/ha; scale of 0 to 100 where 0 is no effect and 100 is complete control; 13 to 15 days
In short: (§1)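 Two-leaf stage → flood to 3 cm → compound into water → hold depth, greenhouse 13–15 d → visual score vs controls (0 none, 100 complete control).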

[2] = tested on: ducksalad (Heteranthera limosa); test: Test C flooded paddy test plant response; details: Flood, 250 g ai/ha; scale of 0 to 100 where 0 is no effect and 100 is complete control; 13 to 15 days
In short: as §1

[3] = tested on: small-flower umbrella sedge (Cyperus difformis); test: Test C flooded paddy test plant response; details: Flood, 250 g ai/ha; scale of 0 to 100 where 0 is no effect and 100 is complete control; 13 to 15 days
In short: as §1

rice (Oryza sativa) = test: Test C flooded paddy test plant response; details: Flood, 250 g ai/ha; scale of 0 to 100 where 0 is no effect and 100 is complete control; 13 to 15 days
In short: as §1

[4] = tested on: galium (catchweed bedstraw, Galium aparine); test: Test B postemergence plant response; details: 125 g ai/ha, postemergence; 0 to 100 scale, 0 no effect, 100 complete control
In short: (§2)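 Pots, loam soil + sand; postemergence treatment at 1–2 leaf stage, 2–10 cm; greenhouse ~10 d; visual injury score 0 (none) to 100 (complete control) relative to untreated controls.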

[5] = tested on: blackgrass (Alopecurus myosuroides); test: Test B postemergence plant response; details: 0 to 100 scale, 0 no effect, 100 complete control
In short: as §2

[6] = tested on: wheat (Triticum aestivum); test: Test B pre-/postemergence plant response; details: 125 g ai/ha, postemergence; 0 to 100 scale, 0 no effect, 100 complete control
Source text: (§3) Seeds of plant species selected from bamyardgrass (Echinochloa crus-galli), kochia (Kochia scoparia), ragweed (common ragweed, Ambrosia elatior), Italian ryegrass (Lolium multiflorum), large (Lg) crabgrass (Digitaria sanguinalis), giant foxtail (Setaria faberii), momingglory (Ipomoea spp.), pigweed (Amaranthus retroflexus), velvetleaf (Abutilon theophrasti), wheat (Triticum aestivum), and corn (Zea mays) were planted into a blend of loam soil and sand and treated preemergence with a directed soil spray using test chemicals formulated in a non-phytotoxic solvent mixture which included a surfactant. At the same time, plants selected from these crop and weed species and also blackgrass (Alopecurus myosuroides), and galium (catchweed bedstraw, Galium aparine) were planted in pots containing the same blend of loam soil and sand and treated with postemergence applications of test chemicals formulated in the same manner. Plants ranged in height from 2 to 10 cm and were in the one- to two-leaf stage for the postemergence treatment. Treated plants and untreated controls were maintained in a greenhouse for approximately 10 days, after which time all treated plants were compared to untreated controls and visually evaluated for injury. Plant response ratings, summarized in Table B, are based on a 0 to 100 scale where 0 is no effect and 100 is complete control. A dash (-) response means no test result.

kochia (Kochia scoparia) = test: Test B pre-/postemergence plant response; details: for Kochia plant response rating: 0 to 100 scale (0 no effect, 100 complete control)
Source text: as §3

[7] = tested on: barnyardgrass (Echinochloa crus-galli); test: Test B pre-/postemergence plant response; details: for Barnyardgrass plant response rating: 0 to 100 scale (0 no effect, 100 complete control)
Source text: as §3

[8] = tested on: giant foxtail (Setaria faberii); test: Test B pre-/postemergence plant response; details: for Foxtail, Giant plant response rating: 0 to 100 scale (0 no effect, 100 complete control)
Source text: as §3

[9] = tested on: pigweed (Amaranthus retroflexus); test: Test B pre-/postemergence plant response; details: for Pigweed plant response rating: 0 to 100 scale (0 no effect, 100 complete control)
Source text: as §3

corn (Zea mays) = test: Test B pre-/postemergence plant response; details: 0 to 100 scale, 0 no effect, 100 complete control
Source text: as §3

[10] = tested on: Italian ryegrass (Lolium multiflorum); test: Test B pre-/postemergence plant response; details: for Ryegrass, Italian plant response rating: 0 to 100 scale (0 no effect, 100 complete control)
Source text: as §3

[11] = tested on: ragweed (common ragweed, Ambrosia elatior); test: Test B pre-/postemergence plant response; details: for Ragweed plant response rating: 0 to 100 scale (0 no effect, 100 complete control)
Source text: as §3

[12] = 31 g ai/ha, Preemergence, 0 to 100 scale where 0 is no effect and 100 is complete control
[13] = 125 g ai/ha, postemergence, 0 to 100 scale, 0 no effect, 100 complete control
[14] = 31 g ai/ha, Postemergence, 0 to 100 scale, 0 no effect, 100 complete control

Fc1ccc(-c2cc(C(F)(F)F)no2)c(Oc2ncc(Cl)cn2)c1 [Compound 124]
Barnyardgrass plant response rating [1]: 0
Ducksalad plant response rating [2]: 80
Sedge, Umbrella plant response rating [3]: 85
Rice plant response rating (rice (Oryza sativa)): 0
Plant response rating, Galium [4]: 100
Plant response rating, Blackgrass ([5]; 31 g ai/ha, Postemergence): 0
Plant response rating, Blackgrass ([5]; 125 g ai/ha, postemergence): 30
Plant response rating, Wheat [6]: 0
Plant response rating, Kochia (kochia (Kochia scoparia); [12]): 10
Plant response rating, Kochia (kochia (Kochia scoparia); [13]): 80
Kochia plant response rating (kochia (Kochia scoparia); Preemergence, 125 g ai/ha): 60
Plant response rating, Barnyardgrass [7, 14]: 0
Plant response rating, Barnyardgrass [7, 12]: 0
Plant response rating, Barnyardgrass [7, 13]: 20
Barnyardgrass plant response rating ([7]; Preemergence, 125 g ai/ha): 30
Plant response rating, Foxtail, Giant [8, 14]: 0
Plant response rating, Foxtail, Giant [8, 12]: 20
Plant response rating, Foxtail, Giant [8, 13]: 20
Foxtail, Giant plant response rating ([8]; Preemergence, 125 g ai/ha): 100
Plant response rating, Pigweed [9, 12]: 40
Plant response rating, Pigweed [9, 13]: 90
Pigweed plant response rating ([9]; Preemergence, 125 g ai/ha): 100
Plant response rating, Corn (corn (Zea mays); 31 g ai/ha, Postemergence): 0
Plant response rating, Corn (corn (Zea mays); 125 g ai/ha, postemergence): 10
Plant response rating, Ryegrass, Italian [10, 12]: 0
Plant response rating, Ryegrass, Italian [10, 13]: 0
Ryegrass, Italian plant response rating ([10]; Preemergence, 125 g ai/ha): 10
Plant response rating, Ragweed [11, 12]: 0
Plant response rating, Ragweed [11, 13]: 20
Ragweed plant response rating ([11]; Preemergence, 125 g ai/ha): 10

Fc1ccc(-c2cc(C(F)(F)F)no2)c(Oc2ncc(Br)cn2)c1 [Compound 125]
Barnyardgrass plant response rating [1]: 0
Ducksalad plant response rating [2]: 80
Sedge, Umbrella plant response rating [3]: 90
Rice plant response rating (rice (Oryza sativa)): 0
Plant response rating, Galium [4]: 100
Plant response rating, Blackgrass ([5]; 31 g ai/ha, Postemergence): 10
Plant response rating, Blackgrass ([5]; 125 g ai/ha, postemergence): 30
Plant response rating, Wheat [6]: 0
Plant response rating, Kochia (kochia (Kochia scoparia); [12]): 0
Plant response rating, Kochia (kochia (Kochia scoparia); [13]): 80
Kochia plant response rating (kochia (Kochia scoparia); Preemergence, 125 g ai/ha): 40
Plant response rating, Barnyardgrass [7, 14]: 10
Plant response rating, Barnyardgrass [7, 12]: 0
Plant response rating, Barnyardgrass [7, 13]: 30
Barnyardgrass plant response rating ([7]; Preemergence, 125 g ai/ha): 50
Plant response rating, Foxtail, Giant [8, 14]: 0
Plant response rating, Foxtail, Giant [8, 12]: 10
Plant response rating, Foxtail, Giant [8, 13]: 20
Foxtail, Giant plant response rating ([8]; Preemergence, 125 g ai/ha): 90
Plant response rating, Pigweed [9, 12]: 0
Plant response rating, Pigweed [9, 13]: 90
Pigweed plant response rating ([9]; Preemergence, 125 g ai/ha): 80
Plant response rating, Corn (corn (Zea mays); 31 g ai/ha, Postemergence): 0
Plant response rating, Corn (corn (Zea mays); 125 g ai/ha, postemergence): 10
Plant response rating, Ryegrass, Italian [10, 12]: 0
Plant response rating, Ryegrass, Italian [10, 13]: 10
Ryegrass, Italian plant response rating ([10]; Preemergence, 125 g ai/ha): 10
Plant response rating, Ragweed [11, 12]: 0
Plant response rating, Ragweed [11, 13]: 20
Ragweed plant response rating ([11]; Preemergence, 125 g ai/ha): 0

FC(F)(F)c1cc(-c2c(Cl)cccc2Oc2ncc(Cl)cn2)on1 [Compound 126]
Barnyardgrass plant response rating [1]: 95
Ducksalad plant response rating [2]: 100
Sedge, Umbrella plant response rating [3]: 100
Rice plant response rating (rice (Oryza sativa)): 75
Plant response rating, Galium [4]: 100
Plant response rating, Blackgrass ([5]; 31 g ai/ha, Postemergence): 60
Plant response rating, Blackgrass ([5]; 125 g ai/ha, postemergence): 90
Plant response rating, Wheat [6]: 40
Plant response rating, Kochia (kochia (Kochia scoparia); [12]): 80
Plant response rating, Kochia (kochia (Kochia scoparia); [13]): 90
Kochia plant response rating (kochia (Kochia scoparia); Preemergence, 125 g ai/ha): 90
Plant response rating, Barnyardgrass [7, 14]: 80
Plant response rating, Barnyardgrass [7, 12]: 90
Plant response rating, Barnyardgrass [7, 13]: 100
Barnyardgrass plant response rating ([7]; Preemergence, 125 g ai/ha): 100
Plant response rating, Foxtail, Giant [8, 14]: 60
Plant response rating, Foxtail, Giant [8, 12]: 100
Plant response rating, Foxtail, Giant [8, 13]: 90
Foxtail, Giant plant response rating ([8]; Preemergence, 125 g ai/ha): 100
Plant response rating, Pigweed [9, 12]: 100
Plant response rating, Pigweed [9, 13]: 100
Pigweed plant response rating ([9]; Preemergence, 125 g ai/ha): 100
Plant response rating, Corn (corn (Zea mays); 31 g ai/ha, Postemergence): 20
Plant response rating, Corn (corn (Zea mays); 125 g ai/ha, postemergence): 70
Plant response rating, Ryegrass, Italian [10, 12]: 40
Plant response rating, Ryegrass, Italian [10, 13]: 100
Ryegrass, Italian plant response rating ([10]; Preemergence, 125 g ai/ha): 100
Plant response rating, Ragweed [11, 12]: 10
Plant response rating, Ragweed [11, 13]: 40
Ragweed plant response rating ([11]; Preemergence, 125 g ai/ha): 10
